Consider nine compounds from US12630600B2 (MEDIMMUNE LIMITED, priority 2022, dated 2026).

Starred links: 1 amine or outer side, 2 acyl side, 3 side chain; linkers in the order of their positions; H or OH if unused. Non-standard residues stand in square brackets, D forms with d. Residues, ends and D or L forms follow the SMILES beside them. Groups on a side chain read outwards from the residue. *: point of attachment. C20 diacid = O=C(O)CCCCCCCCCCCCCCCCCCC(=O)*; C18 diacid = O=C(O)CCCCCCCCCCCCCCCCC(=O)*; γGlu = O=C(O)[C@H](CCC(=O)[*:2])N[*:1]; αMeF = C[C@](N)(Cc1ccccc1)C(=O)O; PEG2 = NCCOCCOCCC(=O)O; AEEA = NCCOCCOCC(=O)O; Aib = CC(C)(N)C(=O)O

The target in one test is T1, human GLP-1 receptor (hGLP-1R) (Homo sapiens, UniProt P43220).
T1 construct: expressed in transfected cells; host or cells: CHO
T1 sequence (P43220 24-463): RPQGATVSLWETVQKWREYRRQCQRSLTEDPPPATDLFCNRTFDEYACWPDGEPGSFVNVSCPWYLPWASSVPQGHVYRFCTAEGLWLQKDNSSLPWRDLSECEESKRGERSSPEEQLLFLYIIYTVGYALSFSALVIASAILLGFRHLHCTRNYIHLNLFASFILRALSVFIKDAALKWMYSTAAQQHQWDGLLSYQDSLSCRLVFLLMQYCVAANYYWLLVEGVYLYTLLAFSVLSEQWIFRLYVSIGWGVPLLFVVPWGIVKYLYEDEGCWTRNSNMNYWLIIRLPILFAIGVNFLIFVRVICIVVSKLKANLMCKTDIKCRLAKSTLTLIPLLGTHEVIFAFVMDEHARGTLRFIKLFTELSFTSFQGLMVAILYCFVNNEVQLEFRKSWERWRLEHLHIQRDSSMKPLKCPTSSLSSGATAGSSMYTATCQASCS
Kind of test: cAMP production (HTRF) in CHO cells expressing human GLP-1 receptor. The test is classed as cell-based. The following applies: Table 6; % GLP-1R activity relative to GLP-1 / % GlucR activity relative to glucagon.
Consider `CC(C)C[C@H](NC(=O)[C@H](CCC(=O)O)NC(=O)[C@H](CC(C)C)NC(=O)[C@](C)(Cc1ccccc1)NC(=O)[C@H](CCCCN)NC(=O)[C@H](CO)NC(=O)[C@@H](NC(=O)[C@H](CC(=O)O)NC(=O)[C@H](CO)NC(=O)[C@@H](NC(=O)[C@H](Cc1ccccc1)NC(=O)[C@@H](NC(=O)CNC(=O)[C@H](CCC(N)=O)NC(=O)C(C)(C)NC(=O)[C@@H](N)Cc1c[nH]cn1)[C@@H](C)O)[C@@H](C)O)C(C)C)C(=O)N[C@@H](CCCCNC(=O)COCCOCCNC(=O)COCCOCCNC(=O)CC[C@H](NC(=O)CCCCCCCCCCCCCCCCC(=O)O)C(=O)O)C(=O)N[C@@H](CCCNC(=N)N)C(=O)N[C@@H](C)C(=O)N[C@@H](CCC(N)=O)C(=O)N[C@@H](CC(=O)O)C(=O)N[C@@H](Cc1ccccc1)C(=O)N[C@H](C(=O)N[C@@H](CCCNC(=N)N)C(=O)N[C@@H](Cc1c[nH]c2ccccc12)C(=O)N[C@@H](CC(C)C)C(=O)N[C@@H](CC(C)C)C(=O)NC(C)(C)C(=O)N[C@H](C(=O)N[C@@H](CCC(=O)O)C(=O)O)[C@@H](C)O)C(C)C` [Peptide 169] (H-H[Aib]QGTFTSDVSK[αMeF]LELK([AEEA-AEEA-γGlu-C18 diacid])RAQDFVRWLL[Aib]TE-OH; N-terminus assumed), for which the “% Relative Potency Ratio” value worked out at 13.2. With `CC(C)C[C@H](NC(=O)[C@H](Cc1c[nH]c2ccccc12)NC(=O)[C@H](CCC(N)=O)NC(=O)[C@@H](NC(=O)[C@H](Cc1ccccc1)NC(=O)[C@H](CC(=O)O)NC(=O)[C@H](CCCNC(=N)N)NC(=O)[C@H](C)NC(=O)[C@H](CCCNC(=N)N)NC(=O)[C@H](CCCCNC(=O)COCCOCCNC(=O)COCCOCCNC(=O)CC[C@H](NC(=O)CCCCCCCCCCCCCCCCC(=O)O)C(=O)O)NC(=O)[C@@H](NC(=O)[C@H](CCC(=O)O)NC(=O)[C@H](CC(C)C)NC(=O)[C@](C)(Cc1ccccc1)NC(=O)[C@H](CCCCN)NC(=O)[C@H](CO)NC(=O)[C@@H](NC(=O)[C@H](CC(=O)O)NC(=O)[C@H](CO)NC(=O)[C@@H](NC(=O)[C@H](Cc1ccccc1)NC(=O)[C@@H](NC(=O)CNC(=O)[C@H](CCC(N)=O)NC(=O)C(C)(C)NC(=O)[C@@H](N)Cc1c[nH]cn1)[C@@H](C)O)[C@@H](C)O)C(C)C)[C@@H](C)O)C(C)C)C(=O)N[C@@H](CC(C)C)C(=O)N[C@@H](CCC(=O)O)C(=O)NC(C)(C)C(=O)NCC(=O)O` [Peptide 445] (H-H[Aib]QGTFTSDVSK[αMeF]LETK([AEEA-AEEA-γGlu-C18 diacid])RARDFVQWLLE[Aib]G-OH; N-terminus assumed), the “% Relative Potency Ratio” value amounted to 41.0.

The same test, now with this note: Table 8; % GLP-1R activity relative to GLP-1 / % GlucR activity relative to glucagon.
As to `CC[C@H](C)[C@H](NC(=O)[C@H](CO)NC(=O)[C@H](CCCCNC(=O)COCCOCCNC(=O)COCCOCCNC(=O)CC[C@H](NC(=O)CC[C@H](NC(=O)CCCCCCCCCCCCCCCCC(=O)O)C(=O)O)C(=O)O)NC(=O)[C@@H](NC(=O)[C@](C)(Cc1ccccc1)NC(=O)[C@H](CC(=O)O)NC(=O)[C@H](CCC(N)=O)NC(=O)[C@H](C)NC(=O)[C@H](C)NC(=O)[C@H](CCCNC(=N)N)NC(=O)[C@H](CO)NC(=O)[C@H](CC(=O)O)NC(=O)[C@H](CC(C)C)NC(=O)[C@](C)(Cc1ccccc1)NC(=O)[C@H](CCCCN)NC(=O)[C@H](CO)NC(=O)[C@@H](NC(=O)[C@H](CC(=O)O)NC(=O)[C@H](CO)NC(=O)[C@@H](NC(=O)[C@](C)(Cc1ccccc1)NC(=O)[C@H](CO)NC(=O)CNC(=O)[C@H](Cc1c[nH]cn1)NC(=O)C(C)(C)NC(=O)[C@@H](N)Cc1c[nH]cn1)[C@@H](C)O)C(C)C)C(C)C)C(=O)N[C@@H](C)C(=O)N[C@@H](CC(N)=O)C(=O)N[C@H](C(N)=O)[C@@H](C)O` [Peptide 378] (H-H[Aib]HGS[αMeF]TSDVSK[αMeF]LDSRAAQD[αMeF]VK([AEEA-AEEA-γGlu-γGlu-C18 diacid])SIANT-NH2; N-terminus assumed), the “% Relative Potency Ratio” value came to 2.0. The same measure, in the same setting: in the case of `CC[C@H](C)[C@H](NC(=O)[C@H](Cc1c[nH]c2ccccc12)NC(=O)[C@H](CCCCNC(=O)COCCOCCNC(=O)COCCOCCNC(=O)CC[C@H](NC(=O)CC[C@H](NC(=O)CCCCCCCCCCCCCCCCC(=O)O)C(=O)O)C(=O)O)NC(=O)[C@@H](NC(=O)[C@H](Cc1ccccc1)NC(=O)[C@H](CC(=O)O)NC(=O)[C@H](CCC(N)=O)NC(=O)[C@H](C)NC(=O)[C@H](C)NC(=O)[C@H](CCCNC(=N)N)NC(=O)[C@H](CO)NC(=O)[C@H](CC(=O)O)NC(=O)[C@H](CC(C)C)NC(=O)[C@](C)(Cc1ccccc1)NC(=O)[C@H](CCCCN)NC(=O)[C@H](CO)NC(=O)[C@@H](NC(=O)[C@H](CC(=O)O)NC(=O)[C@H](CO)NC(=O)[C@@H](NC(=O)[C@](C)(Cc1ccccc1)NC(=O)[C@H](CO)NC(=O)CNC(=O)[C@H](Cc1c[nH]cn1)NC(=O)C(C)(C)NC(=O)[C@@H](N)Cc1c[nH]cn1)[C@@H](C)O)C(C)C)C(C)C)C(=O)N[C@@H](C)C(=O)N[C@@H](CC(N)=O)C(=O)N[C@H](C(=O)NCC(N)=O)[C@@H](C)O` [Peptide 363] (H-H[Aib]HGS[αMeF]TSDVSK[αMeF]LDSRAAQDFVK([AEEA-AEEA-γGlu-γGlu-C18 diacid])WIANTG-NH2; N-terminus assumed) it was 5.1. Turning to `CC[C@H](C)[C@H](NC(=O)[C@H](Cc1c[nH]c2ccccc12)NC(=O)[C@H](CCCCNC(=O)COCCOCCNC(=O)COCCOCCNC(=O)CC[C@H](NC(=O)CCCCCCCCCCCCCCCCC(=O)O)C(=O)O)NC(=O)[C@@H](NC(=O)[C@H](Cc1ccccc1)NC(=O)[C@H](CC(=O)O)NC(=O)[C@H](CCC(N)=O)NC(=O)[C@H](C)NC(=O)[C@H](C)NC(=O)[C@H](CCC(N)=O)NC(=O)[C@H](CO)NC(=O)[C@H](CC(=O)O)NC(=O)[C@H](CC(C)C)NC(=O)[C@](C)(Cc1ccccc1)NC(=O)[C@H](CCCCN)NC(=O)[C@H](CO)NC(=O)[C@@H](NC(=O)[C@H](CC(=O)O)NC(=O)[C@H](CO)NC(=O)[C@@H](NC(=O)[C@](C)(Cc1ccccc1)NC(=O)[C@H](CO)NC(=O)CNC(=O)[C@H](Cc1c[nH]cn1)NC(=O)C(C)(C)NC(=O)[C@@H](N)Cc1c[nH]cn1)[C@@H](C)O)C(C)C)C(C)C)C(=O)N[C@@H](C)C(=O)N[C@@H](CC(N)=O)C(=O)N[C@H](C(=O)NCC(=O)NCC(N)=O)[C@@H](C)O` [Peptide 350] (H-H[Aib]HGS[αMeF]TSDVSK[αMeF]LDSQAAQDFVK([AEEA-AEEA-γGlu-C18 diacid])WIANTGG-NH2; N-terminus assumed), the “% Relative Potency Ratio” value is recorded as 8.6. The same measure, in the same setting: in the case of `CC[C@H](C)[C@H](NC(=O)[C@H](Cc1c[nH]c2ccccc12)NC(=O)[C@H](CCCCNC(=O)CCOCCOCCNC(=O)CCOCCOCCNC(=O)CC[C@H](NC(=O)CC[C@H](NC(=O)CCCCCCCCCCCCCCCCCCC(=O)O)C(=O)O)C(=O)O)NC(=O)[C@@H](NC(=O)[C@H](Cc1ccccc1)NC(=O)[C@H](CC(=O)O)NC(=O)[C@H](CCC(N)=O)NC(=O)[C@H](C)NC(=O)[C@H](C)NC(=O)[C@H](CCC(N)=O)NC(=O)[C@H](CO)NC(=O)[C@H](CC(=O)O)NC(=O)[C@H](CC(C)C)NC(=O)[C@](C)(Cc1ccccc1)NC(=O)[C@H](CCCCN)NC(=O)[C@H](CO)NC(=O)[C@@H](NC(=O)[C@H](CC(=O)O)NC(=O)[C@H](CO)NC(=O)[C@@H](NC(=O)[C@](C)(Cc1ccccc1)NC(=O)[C@H](CO)NC(=O)CNC(=O)[C@H](Cc1c[nH]cn1)NC(=O)C(C)(C)NC(=O)[C@@H](N)Cc1c[nH]cn1)[C@@H](C)O)C(C)C)C(C)C)C(=O)N[C@@H](C)C(=O)N[C@@H](CC(N)=O)C(=O)N[C@H](C(N)=O)[C@@H](C)O` [Peptide 355] (H-H[Aib]HGS[αMeF]TSDVSK[αMeF]LDSQAAQDFVK([PEG2-PEG2-γGlu-γGlu-C20 diacid])WIANT-NH2; N-terminus assumed) it was 2.2. On the same count and under the same terms, with `CC[C@H](C)[C@H](NC(=O)[C@H](Cc1c[nH]c2ccccc12)NC(=O)[C@H](CCCCNC(=O)COCCOCCNC(=O)COCCOCCNC(=O)CC[C@H](NC(=O)CC[C@H](NC(=O)CCCCCCCCCCCCCCCCC(=O)O)C(=O)O)C(=O)O)NC(=O)[C@@H](NC(=O)[C@](C)(Cc1ccccc1)NC(=O)[C@H](CC(=O)O)NC(=O)[C@H](CCC(N)=O)NC(=O)[C@H](C)NC(=O)[C@H](C)NC(=O)[C@H](CCCNC(=N)N)NC(=O)[C@H](CO)NC(=O)[C@H](CC(=O)O)NC(=O)[C@H](CC(C)C)NC(=O)[C@](C)(Cc1ccccc1)NC(=O)[C@H](CCCCN)NC(=O)[C@H](CO)NC(=O)[C@@H](NC(=O)[C@H](CC(=O)O)NC(=O)[C@H](CO)NC(=O)[C@@H](NC(=O)[C@](C)(Cc1ccccc1)NC(=O)[C@H](CO)NC(=O)CNC(=O)[C@H](Cc1c[nH]cn1)NC(=O)C(C)(C)NC(=O)[C@@H](N)Cc1c[nH]cn1)[C@@H](C)O)C(C)C)C(C)C)C(=O)N[C@@H](C)C(=O)N[C@@H](CC(N)=O)C(=O)N[C@H](C(N)=O)[C@@H](C)O` [Peptide 371] (H-H[Aib]HGS[αMeF]TSDVSK[αMeF]LDSRAAQD[αMeF]VK([AEEA-AEEA-γGlu-γGlu-C18 diacid])WIANT-NH2; N-terminus assumed) the figure was 0.9; with `CC[C@H](C)[C@H](NC(=O)[C@H](Cc1c[nH]c2ccccc12)NC(=O)[C@H](CCCCNC(=O)COCCOCCNC(=O)COCCOCCNC(=O)CC[C@H](NC(=O)CCCCCCCCCCCCCCCCC(=O)O)C(=O)O)NC(=O)[C@@H](NC(=O)[C@H](Cc1ccccc1)NC(=O)[C@H](CC(=O)O)NC(=O)[C@H](CCC(N)=O)NC(=O)[C@H](C)NC(=O)[C@H](C)NC(=O)[C@H](CCC(N)=O)NC(=O)[C@H](CO)NC(=O)[C@H](CC(=O)O)NC(=O)[C@H](CC(C)C)NC(=O)[C@](C)(Cc1ccccc1)NC(=O)[C@H](CCCCN)NC(=O)[C@H](CO)NC(=O)[C@@H](NC(=O)[C@H](CC(=O)O)NC(=O)[C@H](CO)NC(=O)[C@@H](NC(=O)[C@](C)(Cc1ccccc1)NC(=O)[C@H](CO)NC(=O)CNC(=O)[C@@H](NC(=O)C(C)(C)NC(=O)[C@@H](N)Cc1c[nH]cn1)[C@@H](C)CC)[C@@H](C)O)C(C)C)C(C)C)C(=O)N[C@@H](C)C(=O)N[C@@H](CC(N)=O)C(=O)N[C@H](C(N)=O)[C@@H](C)O` [Peptide 358] (H-H[Aib]IGS[αMeF]TSDVSK[αMeF]LDSQAAQDFVK([AEEA-AEEA-γGlu-C18 diacid])WIANT-NH2; N-terminus assumed), 424.1.

The test is the same for the next values; noted with them: Table 10; % GLP-1R activity relative to GLP-1 / % GlucR activity relative to glucagon.
Regarding “H(Aib)HGS(αMePhe)TSDVSKK(O2OC-O2OC-γE-C18diacid)13LDSRAAQD(αMePhe)VQ(Aib)IANT-amide [Peptide 406]”, the “% Relative Potency Ratio” value is on record as 31.6.
